Source: patent publication US20100076089A1, “ANTIMICROBIAL GEL FORMULATIONS” (NovaBay Pharmaceuticals, Inc., priority 2008, published 2010)
Several values for one entry are separate records, joined by “and”; a condition that tells them apart may be missing. Equal values may be shown once.

Tests used:
[1] = Amount of N,N-dichloro-2,2-dimethyltaurine an AA-1 formulation can hold; assay type: physicochemical
From the text: The formulations may be made by mixing the N-halogenated or N,N-dihalogenated amine compound with the polymer using water. Water/oil emulsions, hydrating agents, wetting agents, surfactants, and the like may also be used. Concentrations of N-halogenated or N,N-dihalogenated amine compound may range from about 0.01% to about 5.0% (by weight). Concentrations of polymer may be from about 0.01% to about 10% (by weight) in water. For example, in certain implementations, the concentration of N-halogenated or N,N-dihalogenated compounds may range from about 0.1% to about 2.0% (by weight). Higher concentrations of polymer may be required to formulate higher concentrations of the N-halogenated or N,N-dihalogenated amine compound. For example, a 1% AA-1 formulation can hold up to about 2% N,N-dichloro-2,2-dimethyltaurine, whereas a 2% AA-1 formulation can hold up to about 3.5% of the same compound. These ratios may differ as different polymers and N-halogenated or N,N-dihalogenated amine compound are combined in a given formulation.

S. aureus = experiment: Time-kill assay of antimicrobial gel formulations; assay type: cell-based; settings: final inoculum 1.5×10^7 CFU/mL, room temperature
Method: Isolated S. aureus colonies were picked into 5 mL Tryptic Soy Broth (TSB) and grown for 4-6 hours at 37° C. Stock titers were determined by drop plate method. A working stock of S. aureus was prepared by dilution of the culture to a final inoculum of 1.5×10^8 colony forming units (CFU) per mL in sterile pH 4.0 saline. 900 μL of each tested formulation was placed in sterile glass tubes. A 0.1 mL aliquot of S. aureus suspension containing 1.5×10^8 CFU/mL was inoculated into the test sample container to give a final inoculum of 1.5×10^7 CFU/mL. The inoculated formulation was immediately mixed for 3 seconds following inoculation using a vortex and incubated at room temperature. A plate count was performed on the inoculated samples after 0, 5, 15, 30 and 60 minutes following inoculation as follows: • 0.1 mL of the inoculated antimicrobial test agent was placed into 0.9 mL of the D/E neutralizing broth • A 0.1 mL aliquot of each sample in D/E broth was drop plated on appropriately labeled agar dishes
All plates were incubated at 37° C. for 24 hours for bacterial growth assessment. At the conclusion of the incubation period the number of colonies present on the plates was counted. The total number of survivors at each time point was calculated by multiplying the CFU count obtained by the dilution factor.

S. aureus 29213 = experiment: Radial diffusion assay of antimicrobial gel formulations; assay type: cell-based; settings: 100 μl of formulation
Method: Vials containing 0.6% NVC-422 (Drug Control), liquid, pH=5.0; 3% Polyox® WSR 205 (Placebo) Liquid, R.T. pH=5.0; 0.6% NVC-422/3% Polyox® WSR 205, Liquid, R.T., pH=5.0; 0.75% AA-1 (Placebo), 0.6% NVC-422/0.75% AA-1 and 0.23% AA-1 (alternate placebo) were prepared. The first three test articles appeared as clear liquids, while the last three appeared as gels. The samples were tested in the radial diffusion assay against S. aureus 29213. 100 μl of each formulation were tested in duplicate on two plates each (n=4 total).

S. aureus 6538 biofilm = experiment: Calgary Biofilm Device (MBEC) assay, absorbance reading; assay type: cell-based; settings: 24 hr biofilm, treatment 60 minutes, overnight regrowth in TSB; values greater than 0.1 indicate incomplete biofilm eradication
Method: S. aureus 6538 biofilm was grown in MBEC plates for 24 hr at 35° C. for 24 hr in TSB prior to treatment using the method describe above. The MBEC lid containing pegs coated with biofilm was first rinsed in a plate containing […] of PBS in each well for 1 minute, prior to treatment with a plate containing formulations for 60 minutes total. The lid was neutralized in a plate containing 200 μl D/E Neutralization broth in each well for 1 minute before transferring the lid into a plate containing 150 μl TSB in each well. Plate was incubated overnight at 35° C. Absorbance was read at 650 nm the following day.

Structure (SMILES): CC(C)(CS(=O)(=O)O)N(Cl)Cl [NVC-422, N,N-dichloro-2,2-dimethyltaurine]
- amount of compound the formulation can hold ([1]; 1% AA-1 formulation): up to 2%
- amount of compound the formulation can hold ([1]; 2% AA-1 formulation): up to 3.5%

Structure (SMILES): CC(C)(CS(=O)(=O)O)N(Cl)Cl [0.3% NVC-422 alone, N,N-dichloro-2,2-dimethyltaurine]
- time to complete kill (S. aureus): 1 h

Structure (SMILES): CC(C)(CS(=O)(=O)O)N(Cl)Cl [0.6% NVC-422, N,N-dichloro-2,2-dimethyltaurine]
- time to complete kill (S. aureus; listed as 0.6% NVC-422 alone): 0.25 h
- Clearing zone diameters, Sample 1 (S. aureus 29213; pH 5.0): 15 mm
- Clearing zone diameters, Sample 2 (S. aureus 29213; pH 5.0): 16 mm
- Clearing zone diameters, Sample 3 (S. aureus 29213; pH 5.0): 16 mm
- Clearing zone diameters, Sample 4 (S. aureus 29213; pH 5.0): 14 mm
- Clearing zone diameters, Average +/− SD (S. aureus 29213; pH 5.0, n=4, pH 5): 15.3 mm and 15.3 +/− 1.0 mm
- Ave. Abs at 650 nm (S. aureus 6538 biofilm): 0.48
